Entries after “also recorded” stand apart in the source; their conditions may differ.

In one data set the test system is MEK. Briefly: SELP expression in LP-9 by qRT-PCR, MEK inhibition. Particulars: both vehicle and 100 ng/mL MIP-1β treated LP-9, 10 μM PD0325901, 24 hours. In kind it is cell-based, human. From the text:
(§1) RNA extraction and qRT-PCR: RNA was collected and isolated using the Micro-RNeasy® Extraction kit (Qiagen; Valencia, Calif.), and cDNA was synthesized using the Qiagen® First Strand Kit according to manufacturer's instructions. cDNA was mixed with Qiagen® Mastermix and assayed using the Extracellular Matrix and Adhesion Molecules RT2 Profiler PCR Array (Qiagen) in a CFX real time PCR machine (Bio-Rad; Hercules, Calif.) for a total of 40 cycles, using Qiagen's Data Analysis Center for analysis. Data is expressed as fold change, with ±2-fold set as the threshold for significance. qRT-PCR was performed using human primers for SELP, CCR1, and CCR5, and GAPDH (all Qiagen), and mouse primers for Selp (Qiagen) and Aes (IDT; Coralville, Iowa), with SsoAdvanced™ Universal SYBR® Green Supermix (Bio-Rad). Three samples were run in duplicate from each condition.
(§2) Interventions in co-culture model: To determine if P-selectin played a role in adhesion, LP-9 in co-culture devices were treated with 10 μg/mL of anti-P-selectin blocking antibody or monoclonal mouse IgG1 isotype (BioLegend; San Diego, Calif.), or 10 μM of the small molecular inhibitor KF38789 (Tocris; Minneapolis, Minn.) or DMSO (0.0005% v/v) 1 hour prior to the addition of ovarian cancer cells. […]

The target in data set [1] is T1, P-selectin (Homo sapiens, UniProt P16109).
T1 sequence (P16109 42-830): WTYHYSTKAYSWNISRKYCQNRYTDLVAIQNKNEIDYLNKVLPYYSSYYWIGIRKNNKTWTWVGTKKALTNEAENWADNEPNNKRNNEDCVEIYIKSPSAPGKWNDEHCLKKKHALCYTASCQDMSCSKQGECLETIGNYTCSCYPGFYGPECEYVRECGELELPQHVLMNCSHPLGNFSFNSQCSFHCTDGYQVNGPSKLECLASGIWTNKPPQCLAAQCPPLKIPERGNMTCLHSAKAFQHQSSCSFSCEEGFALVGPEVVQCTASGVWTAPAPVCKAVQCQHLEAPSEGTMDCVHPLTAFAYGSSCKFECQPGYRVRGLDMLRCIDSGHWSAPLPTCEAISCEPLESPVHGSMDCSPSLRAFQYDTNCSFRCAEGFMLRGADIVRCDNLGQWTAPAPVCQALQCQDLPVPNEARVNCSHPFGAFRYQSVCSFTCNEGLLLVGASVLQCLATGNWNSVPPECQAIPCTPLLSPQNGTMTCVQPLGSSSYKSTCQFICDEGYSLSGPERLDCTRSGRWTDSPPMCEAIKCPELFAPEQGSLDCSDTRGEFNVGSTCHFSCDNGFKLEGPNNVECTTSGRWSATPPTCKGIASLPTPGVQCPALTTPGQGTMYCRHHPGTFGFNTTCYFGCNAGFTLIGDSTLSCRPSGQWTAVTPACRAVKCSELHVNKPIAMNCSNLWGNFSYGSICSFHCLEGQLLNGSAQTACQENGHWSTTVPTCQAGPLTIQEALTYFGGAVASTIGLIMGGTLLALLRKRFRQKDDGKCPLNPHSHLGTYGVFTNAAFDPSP
Briefly: Colorectal cancer cell adhesion to MIP-1β-treated LP-9. Set-up: endogenous in cells; host or cells: LP-9 mesothelial cells. The conditions noted are these: LS411N, SW48; 100 ng/mL MIP-1β; KF38789 10 μM. In kind it is cell-based. Here is the method:
The experimental methods are reflective of those previously used to inhibit P-selectin, while used in an adhesion experiment with the colorectal cell lines LS411N and SW48.
The tissue culture plastic within the PDMS ring was coated with 1 μg of PureCol® Collagen I for 2 hours at room temperature. LP-9 were seeded into the PDMS rings to confluency (93,500 cells/cm^2 in 40 μL). Twenty-four hours after seeding, cells were washed with SFM, and 40 μL of fresh SFM containing either vehicle (0.1% BSA) or 100 ng/mL MIP-1β was added for 24 hours. To determine if P-selectin played a role in adhesion, LP-9 were treated with 10 μM of the small molecule P-selectin inhibitor KF38789 or DMSO (0.0005% v/v) 1 hour prior to the addition of colorectal cancer cells. The colorectal cancer cells (LS411N, SW48) were stained with 5 μM CellTracker™ Green CMFDA Dye, dissociated using TrypLE Select Enzyme, and seeded into devices at 10,000 cells/10 μL after 24 hours of mesothelial cell treatment with MIP-1β. Colorectal cancer cells were allowed to adhere for three hours, then coverslips were removed, and devices were washed twice with 2 mL PBS to remove non-adherent cells. […] Percent adhesion was quantified by converting cells/image to total cells/area of the co-culture device and dividing by the number of HGSOC cells added to the device.

Data set [2] concerns the target T1, P-selectin. Briefly: HGSOC adhesion to LP-9 mesothelial cells in co-culture device, P-selectin inhibition. In kind it is cell-based. Set-up: endogenous in cells; host or cells: LP-9 mesothelial cells. The conditions noted are these: LP-9 + 100 ng/mL MIP-1β; 10 μM KF38789 1 hour before tumor cells; 3 h adhesion. The text has this: (§3) In vitro model of adhesion in transcoelomic metastasis: A co-culture device was modified to construct the in vitro model of metastatic adhesion (FIG. 2). The device includes a PDMS ring that is placed in a well of a 24 well tissue culture plate and a 9×9 mm coverslip placed on top. One or more cell types can be grown within the ring, while another population can be grown on the coverslip. Inverting the coverslip on top of the ring initiates co-culture between the populations. The tissue culture plastic within the PDMS ring was coated with 1 μg of PureCol® Collagen I (Advanced Biomatrix; San Diego, Calif.) for 2 hours at room temperature. LP-9 or LP-3 were seeded into the PDMS rings to confluency (93,500 cells/cm^2 in 40 μL). Twenty-four hours after seeding, cells were washed with SFM, AAM or control coverslips were placed on top of the PDMS ring, and 40 μL of fresh SFM was added. HGSOC cells were stained with 5 μM CellTracker™ Green CMFDA Dye, dissociated using TrypLE™ Select Enzyme, and seeded into devices at 10,000 cells/10 μL after 24 hours of mesothelial cells and AAMs co-culture. […] Percent adhesion was quantified by converting cells/image to total cells/area of the co-culture device and dividing by the number of HGSOC cells added to the device.

In another data set the test system is HGSOC. The conditions noted are these: mouse models of HGSOC; cited from earlier work.
For a further data set, the system named is ovarian cancer xenograft. Particulars: clodronate to reduce macrophage levels; cited from earlier work.
The next data set deals with CCR5 (Homo sapiens, UniProt P51681). Briefly: SELP expression in LP-9 by qRT-PCR, CCR5 inhibition. It is filed as cell-based. The conditions noted are these: 100 ng/mL MIP-1β + 10 μg/mL maraviroc, 24 hours.
Text: as §1, §2

For data set [3] the following is noted: administered systemically; cited from earlier work.
Data set [4] addresses T1, P-selectin. The conditions noted are these: clinical trial; cited from earlier work.
For data set [5], the target named is T1, P-selectin. Particulars: cited from earlier work.
For a further data set, the system named is LP-9 mesothelial cells. The experiment in a line: HGSOC adhesion to LP-9 treated with MIP-1β. In kind it is cell-based, human. The conditions noted are these: 100 ng/mL MIP-1β 24 hours, all HGSOC lines.
Text: as §3

Chain of CCR5 (P51681 whole entry): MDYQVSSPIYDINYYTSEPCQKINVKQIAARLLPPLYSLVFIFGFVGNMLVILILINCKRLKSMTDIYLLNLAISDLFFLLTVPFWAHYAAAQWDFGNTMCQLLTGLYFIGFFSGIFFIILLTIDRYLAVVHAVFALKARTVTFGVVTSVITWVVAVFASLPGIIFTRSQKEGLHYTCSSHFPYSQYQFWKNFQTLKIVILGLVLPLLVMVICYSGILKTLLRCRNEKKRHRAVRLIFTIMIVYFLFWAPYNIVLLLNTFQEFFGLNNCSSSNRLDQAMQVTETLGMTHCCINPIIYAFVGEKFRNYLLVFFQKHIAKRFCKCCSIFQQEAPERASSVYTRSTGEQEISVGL

For the molecule `O=C(NOC[C@H](O)CO)c1ccc(F)c(F)c1Nc1ccc(I)cc1F` [PD0325901], the “SELP expression in LP-9” value with MEK is reported as “significantly decreased SELP expression”.

Regarding `COc1ccc(C2CC(c3c(O)cc(C)oc3=O)=NCCS2)c(OC)c1` (stereo not drawn) [KF38789, reference compound], the “Colorectal cancer cell adhesion to LP-9 increased by MIP-1β” value on P-selectin [1] was “abrogates the increased adhesion”. At P-selectin [2], the “HGSOC adhesion to LP-9 increased by MIP-1β” value is listed as “abrogated the increased adhesion”.

As to IL-1ra: AAM-secreted ligand IL-1ra, the Extent of metastasis entry in the data set with HGSOC was “decrease the extent of metastasis”.

For the molecule `O=P(O)(O)C(Cl)(Cl)P(=O)(O)O` [clodronate], the Metastasis entry with ovarian cancer xenograft is “decreased metastasis”.

For Maraviroc, the “MIP-1β-stimulated SELP expression in LP-9” value was “effective in inhibiting MIP-1β-stimulated expression of SELF” on CCR5 and “negated SELP upregulation; also recorded: inhibited the upregulation of SELP” at CCR5 (listed as maraviroc).

Take inclacumab: in data set [3], the Tolerability in patients result is listed as “well tolerated”. Further, in the data set with P-selectin [4], the “Efficacy for saphenous vein graft failure following coronary artery bypass surgery” value was “surgery (94-96). While inclacumab had low efficacy for this”.

B1: crizanlizumab (antibody, chains of the INN, looked up, V domains shown)
VH: QVQLVQSGAEVKKPGASVKVSCKVSGYTFTSYDINWVRQAPGKGLEWMGWIYPGDGSIKYNEKFKGRVTMTVDKSTDTAYMELSSLRSEDTAVYYCARRGEYGNYEGAMDYWGQGTLVTVSS
VL: DIQMTQSPSSLSASVGDRVTITCKASQSVDYDGHSYMNWYQQKPGKAPKLLIYAASNLESGVPSRFSGSGSGTDFTLTISSLQPEDFATYYCQQSDENPLTFGGGTKVEIK
notes: monoclonal antibody against P-selectin
Turning to B1, the Tolerability in patients entry in data set [3] is listed as “well tolerated”. In addition, in the data set with P-selectin [5], the “Effect on P-selectin-ligand binding” value is listed as “not only block ligand binding but also disrupt existing P-selectin-ligand interactions”.

B2: MIP-1β: recombinant chemokine MIP-1β (Peprotech; recombinant mouse MIP-1β in vivo) (protein, UniProt P13236 24-92, looked up)
C-C motif chemokine 4: APMGSDPPTACCFSYTARKLPRNFVVDYYETSSLCSQPAVVFQTKRSKQVCADPSESWVQEYVYDLELN
Turning to B2, the “HGSOC adhesion to LP-9 treated with MIP-1β” value with LP-9 mesothelial cells was “significantly increased adhesion”.

Values taken from US20220025053A1, “Methods of Inhibiting Metastasis in Cancer” (Wisconsin Alumni Research Foundation, priority 2018, published 2022).
